We go through 2 molecules from patent US9662329B2, “Use of survivin antagonists in polyomavirus-related disease” (University of Pittsburgh—Of the Commonwealth System of …, priority 2012, dated 2017).

In series [1] the test system is MKL-1 cells. Briefly: Immunoblotting for cPARP, cCaspase 3 and LC3. Type of series: cell-based, human. The following applies: 100 nM, 48 hours. (In western blotting, separated proteins are transferred to a membrane and probed.)
Series [2] concerns human MKL-1 MCC xenografts. The procedure:
Compounds were dissolved in sterile 0.9% saline solution for administration to animals.
Six-week-old female triple immune-deficient NSG (Nod-SCID gamma) mice (Jackson Laboratory) were maintained in a specific pathogen-free environment.
MCC cells were checked for viability >90% by trypan blue staining, resuspended in PBS (2×10^7 cells in 100 μl) and inoculated subcutaneously into the right flank of mice.
All treatments were delivered for three consecutive weeks. […] YM-155 (2 mg/kg) was given intraperitoneally on five consecutive days, followed by a two-day treatment free interval.
Two-tailed paired Student's t test was used to analyze statistical differences in qRT-PCR results. Mouse survival curves were estimated using the Kaplan-Meier product-limit method and were compared using the log-rank test (GraphPad Software, La Jolla, Calif.). A piecewise linear hierarchical Bayesian model (Zhao et al., Bayesian hierarchical changepoint methods in modeling the tumor growth profiles in xenograft experiments. Clinical Cancer Res 17, 1057 (Mar. 1, 2011)) was used to characterize differences in tumor volumes and growth between treatments.
Cells of Merkel cell polyomavirus (+) carcinoma cell lines MKL-1, MS-1, WaGa, and MKL-2 were checked for viability >90% by trypan blue staining, resuspended in PBS (2×10^7 cells in 100 μl) and inoculated subcutaneously into the right flank of mice.
YM-155 was given intraperitoneally on five consecutive days, followed by a two-day treatment free interval. For YM155 this treatment continued for three weeks or until mice were euthanized. Mice were euthanized upon showing a tumor having a diameter of 20 mm, or upon a showing of significant distress (>20% weight loss or when they became moribund). Caliper measurements of the longest perpendicular tumor diameters were performed every other day and tumor volumes were calculated using the formula: (width)^2×(length/2). Survival was defined as time from the first day of treatment until death/sacrifice.

The subject of the next series is MS-1. Briefly: Cell Titer Glo dose-response study. The series is classed as cell-based, human. The following applies: Homo sapiens, MS-1, read-out: EC50 concentrations for MCC cell lines, MS-1. From the text:
(§1) Seven Merkel cell carcinoma cell lines: MKL-1, MKL-2, MS-1, UISO, MCC13, MCC26 and WaGa (kind gift of Jurgen Becker (Houben et al., Merkel cell polyomavirus-infected Merkel cell carcinoma cells require expression of viral T antigens. J Virol 84, 7064 (July, 2010); Ronan et al., Merkel cell carcinoma: in vitro and in vivo characteristics of a new cell line. J Am Acad Dermatol 29, 715 (November, 1993); Rosen et al., Establishment and characterization of a neuroendocrine skin carcinoma cell line. Lab Invest 56, 302 (March, 1987)); NCI-H69 small cell lung cancer cell line (ATCC); 293 human embryonic kidney cells (ATCC); U2OS osteosarcoma cell line (kind gift of Ole Gjoerup); BJhTERT immortalized foreskin fibroblast cell line (kind gift of Ole Gjoerup); and BJ primary foreskin fibroblasts (ATCC) were used to screen and evaluate the small molecules examined in this study (Houben et al., J Virol 84, 7064 (July, 2010); Ronan et al., J Am Acad Dermatol 29, 715 (November, 1993); Rosen et al., Lab Invest 56, 302 (March, 1987)). The Merkel cell lines and NCI-H69 were grown in RPMI 1640 supplemented with 10% fetal calf serum, penicillin and streptomycin at 37° C. in humidified air containing 5% CO2. The remaining cell lines were grown in DMEM supplemented with 10% fetal calf serum.
(§2) For EC50 measurements, dose-response curves were established for 17 drugs obtained individually in bulk stocks. Iodoacetamide (I1149), sanguarine chloride (S5890), NSC95397 (N1786), chelerythrine chloride (C2932), calmidazolium chloride (C3930), tetraethylthiuram disulfide (T1132), bay 11-7085 (B5681), quinacrine dihydro chloride (Q3251), ellipticine (E3380), amsacrine hydrochloride (A9809) and nutlin-3 (N6287) were purchased from Sigma Aldrich, USA.
(§3) Compounds that met the selection criteria <10% cell survival were purchased or obtained in bulk from NCI/NIH Developmental Therapeutics Program. Serial drug dilutions from 10^−4 M to 10^−9 M were used on MCC and non-MCC cell lines. Cells were seeded into 384-well plates at 6000 cells in 50 μl of medium per well. After 24 hours, 25 μl of 3× drugs were added at increasing concentration to each well. Cell viability was then measured using Cell Titer Glo (Promega) kit following manufacturer's instructions as described previously. Each drug concentration was tested in triplicate for each cell line and experiments were repeated twice. EC50 doses for the drugs were calculated using a four parameter logistic equation (GraphPad Prism).

The subject of the next series is WaGa. Put plainly: Cell Titer Glo dose-response study. The series is classed as cell-based, human. Conditions: Homo sapiens, read-out: EC50 concentrations for MCC cell lines, WaGa.
Text: as §1, §2, §3

A further series deals with MKL-1. Briefly: Cell Titer Glo dose-response study. Conditions: Homo sapiens, MKL-1, read-out: EC50 concentrations for MCC cell lines, MKL-1. Type of series: cell-based, human.
Text: as §1, §2, §3

In another series the test system is UISO. Put plainly: Cell Titer Glo dose-response study. The following applies: Homo sapiens, read-out: EC50 concentrations for MCC cell lines, UISO. Type of series: cell-based, human.
Text: as §1, §2, §3
For orientation: ATP-based viability assays read luminescence as a measure of living cells.

In another series the test system is MKL-2. Put plainly: Cell Titer Glo dose-response study. Type of series: cell-based, human. Conditions: Homo sapiens, read-out: EC50 concentrations for MCC cell lines, MKL-2.
Text: as §1, §2, §3

Another series concerns MCC cell lines. Briefly: cells. The following applies: Homo sapiens, read-out: EC50, active in vitro at low doses. The protocol:
Serial drug dilutions from 10^−4 M to 10^−9 M were used on MCC and non-MCC cell lines. Cells were seeded into 384-well plates at 6000 cells in 50 μl of medium per well. After 24 hours, 25 μl of 3× drugs were added at increasing concentration to each well. Cell viability was then measured using Cell Titer Glo (Promega) kit following manufacturer's instructions as described previously. Each drug concentration was tested in triplicate for each cell line and experiments were repeated twice. EC50 doses for the drugs were calculated using a four parameter logistic equation (GraphPad Prism).

In series [3] the test system is MKL-1 cells. Put plainly: Cell cycle analysis (PI and BrdU staining). The following applies: 12 h, YM155 100 nM, camptothecin 1 μM. The series is classed as cell-based, human. The procedure: MKL-1 cells were treated with Accutase (Millipore) to break clumps and then resuspended in fresh medium containing drug and treated for 12 hours. Three hours before harvest 10 μM Bromodeoxyuridine (BrdU) was added. Cells were then harvested and fixed in chilled 70% ethanol and left overnight. The next day cells were washed, resuspended in 200 μl of 2M HCl/Triton X (1%) and incubated for 30 mins at room temperature. Cells were then centrifuged at 2000 rpm for 10 mins and neutralized in 200 μl of 0.1M sodium tetraborate, pH 8.5 solution. Cells were then washed, suspended in 20 μl of PBS containing 0.5% tween20, 1% donkey serum and 2ul of anti-BrdU antibody (1:10 diution, BD Biosciences) and incubated overnight at 4° C. Cells were then washed and incubated with secondary antibody-anti mouse Alexa488 (1:1000) for 1 hour at room temperature. Cells were finally washed, suspended in PBS containing 100 μg/ml of RNase A, 50 μg/ml of PI (propidium iodide) and 0.05% Triton X and incubated for 30 mins at 37° C. in the dark. The cells were then subjected to FACS using the accuri C6 flow cytometer (UPCI shared resources).
On the technique in general: Uptake of a labelled nucleoside into DNA is a usual measure of proliferation.

Where [4] appears, read: Example 2, 1 mg/kg for three weeks.
[5] abbreviates: three weeks treatment, bortezomib 1 mg/kg twice weekly, YM155 2 mg/kg 5 times weekly.

In the case of `CC(C)C[C@H](NC(=O)[C@H](Cc1ccccc1)NC(=O)c1cnccn1)B(O)O` [Bortezomib], in the series on MKL-1 cells [1], the “apoptosis measured by caspase 3 and PARP cleavage” value was “activated PARP and caspase cleavage”. For the same molecule, in series [2] (setting [4]), the “survival compared to saline” value was “survived as long as those receiving saline”. In addition, the “time after treatment began at which the last animal died” value in [2] (setting [4]) is reported as “approximately one month”. Besides, in [2] (bortezomib 1 mg/kg twice weekly, YM155 2 mg/kg 5 times weekly), the “tolerability / adverse effects in mice” value is “associated with mouse lethargy and weight loss”. Besides, in series [2] (setting [5]), the “mice dying during treatment (up to day 19)” value was 67%. In addition, the “xenograft tumor growth / progression during treatment” value in series [2] (setting [5]) is listed as “did not significantly affect MCC tumor progression or volume”. For the same molecule, the EC50 with MS-1 is 2 nM; in the series with WaGa it was 1 nM; in the series on MKL-1 it was 13 nM; in the series on UISO it was 3 nM; in the series with MKL-2, 5 nM; in the series with MCC cell lines it was 1.3 to 13.2 nM.
For `CC[C@@]1(O)C(=O)OCc2c1cc1n(c2=O)Cc2cc3ccccc3nc2-1` [camptothecin], the BrdU incorporation entry in the series with MKL-1 cells [3] is “accumulation of BrdU-positive cells in G1 and G2”.
